Reference: patent US6833456B2, “Indolyl-urea derivatives of thienopyridines useful as antiangiogenic agents, and methods for their use” (Agouron Pharmaceuticals, Inc., priority 2002, dated 2004)
Where “and” joins values, the source holds several entries; their conditions need not be identical. Equal entries are not always repeated.

Assays:
[1] = molecular target: T1, unphosphorylated VEGF-R2Δ50 (FLVK) (Homo sapiens, UniProt P35968, DEL940-989/E990V); assay: VEGF-R2 coupled spectrophotometric assay, unphosphorylated construct (FLVK); format: biochemical; settings: for inhibition at 0.05 µM: percent inhibition at 50 nM
T1 construct: VEGF-R2Δ50 contains residues 806-939 and 990-1171; made in house; host or cells: baculovirus/insect cell system
How it was run: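 Human VEGF-R2Δ50 cytosolic kinase (residues 806-939/990-1171, E990V), baculovirus-expressed, unphosphorylated form. PK/LDH-coupled NADH oxidation at 340 nm with 20 mM poly(E4Y1), 3 mM ATP, 60 mM MgCl2, 2 mM MnCl2, 200 mM HEPES pH 7.5, 5-40 nM enzyme; Ki fitted by Morrison equation.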

[2] = test system: human umbilical vein endothelial cells (HUVEC); assay: HUVEC+VEGF proliferation assay; format: cell-based; settings: VEGF 6 ng/mL, MTT
How it was run: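 HUVEC (passage 3-4), serum-starved 24 h in F12K + 1% FBS, were pre-treated with compound for 1 h (0.1% DMSO final). They were then stimulated with VEGF at 6 ng/mL final. Proliferation was measured after 72 h by MTT dye reduction (4 h), with absorbance read at 595 nm.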

HUVEC = assay: bFGF HUVEC proliferation; format: cell-based, human; settings: bFGF stimulated HUVEC
PDGFRβ = molecular target: T2, PDGFRβ (Homo sapiens, UniProt P09619); assay: PAE-PDGFRβ phosphorylation in PAE-PDGFRB cells assay; format: cell-based; settings: PAE cells overexpressing human PDGFRβ, PDGF-BB stimulated; read-out: PAE PDGFR autophos IC50
T2 construct: expressed in transfected cells; host or cells: porcine aorta endothelial (PAE) cells
How it was run: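 PAE cells overexpressing human PDGFRβ, serum-starved 16 h (0.1% FBS), compound 1 h at 37° C (0.5% DMSO), then 1 μg/mL PDGF-BB with 2 mM Na3VO4 for 8 min. Receptor captured by anti-PDGFRβ, phosphotyrosine detected by HRP-PY20/TMB at 450 nm; IC50 by four-parameter fit.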

Mouse PK assay = format: in vivo, B6 female mice; settings: po
Method: The pharmacokinetics (e.g., absorption and elimination) of drugs in mice were analyzed using the following experiment. Test compounds were formulated as a suspension in a 30:70 (PEG 400: acidified H2O) vehicle. This solution was administered orally (p.o.) and intraperitoneally (i.p.) at 50 mg/kg to two distinct groups (n=4) of B6 female mice. Blood samples were collected via an orbital bleed at time points: 0 hour (pre-dose), 0.5 hr, 1.0 hr, 2.0 hr, and 4.0 hr post dose. Plasma was obtained from each sample by centrifugation at 2500 rpm for 5 min. Test compound was extracted from the plasma by an organic protein precipitation method. For each time bleed, 50 μL of plasma was combined with 1.0 mL of acetonitrile, vortexed for 2 min. and then spun at 4000 rpm for 15 min. to precipitate the protein and extract out the test compound. Next, the acetonitrile supernatant (the extract containing test compound) was poured into new test tubes and evaporated on a hot plate (25° C.) under a steam of N2 gas. To each tube containing the dried test compound extract, 125 μL of mobile phase (60:40, 0.025 M NH4H2PO4+2.5 mL/L TEA:acetonitrile) was added. The test compound was resuspended in the mobile phase by vortexing and more protein was removed by centrifugation at 4000 rpm for 5 min. Each sample was poured into an HPLC vial for test compound analysis on an Hewlett Packard 1100 series HPLC with UV detection. From each sample, 95 μL was injected onto a Phenomenex-Prodigy reverse phase C-18, 150×3.2 mm column and eluted with a 45-50% acetonitrile gradient run over 10 min. Test-compound plasma concentrations (μg/mL) were determined by a comparison to standard curve (peak area vs. conc. μg/mL) using known concentrations of test compound extracted from plasma samples in the manner described above. Along with the standards and unknowns, three groups (n=4) of quality controls (0.25 μg/mL, 1.5 μg/mL, and 7.5 μg/mL) were run to insure the consistency of the analysis. […] The quantitated test samples were plotted for visual display using Kaleidagraph software and their pharmacokinetic parameters were determined using WIN NONLIN software.

KDR (VEGFR2) = molecular target: T3, KDR (VEGFR2) (Homo sapiens, UniProt P35968); assay: KDR (VEGFR2) phosphorylation in PAE-KDR cells assay; format: cell-based; settings: PAE cells overexpressing human KDR, VEGF stimulated; read-out: PAE KDR autophos IC50
T3 construct: expressed in transfected cells; host or cells: porcine aorta endothelial (PAE) cells
Method: This assay determines the ability of a test compound to inhibit the autophosphorylation of KDR in porcine aorta endothelial (PAE)-KDR cells. PAE cells that overexpress human KDR were used in this assay. The cells were cultured in Ham's F12 media supplemented with 10% fetal bovine serum (FBS) and 400 ug/mL G418. Thirty thousands cells were seeded into each well of a 96-well plate in 75 μL of growth media and allowed to attach for 6 hours at 37° C. Cells were then exposed to the starvation media (Ham's F12 media supplemented with 0.1% FBS) for 16 hours. After the starvation period was over, 10 μL of test agent in 5% DMSO in starvation media were added to the test wells and 10 μL of the vehicle (5% DMSO in starvation media) were added into the control wells. The final DMSO concentration in each well was 0.5%. Plates were incubated at 37° C. for 1 hour and the cells were then stimulated with 500 ng/ml VEGF (commercially available from R & D System) in the presence of 2 mM Na3VO4 for 8 minutes. The cells were washed once with 1 mm Na3VO4 in HBSS and lysed by adding 50 μL per well of lysis buffer. One hundred μL of dilution buffer were then added to each well and the diluted cell lysate was transferred to a 96-well goat ant-rabbit coated plate (commercially available from Pierce) which was pre-coated with Rabbit anti Human Anti-flk-1 C-20 antibody (commercially available from Santa Cruz). The plates were incubated at room temperature for 2 hours and washed seven times with 1% Tween 20 in PBS. HRP-PY20 (commercially available from Santa Cruz) was diluted and added to the plate for a 30-minute incubation. Plates were then washed again and TMB peroxidase substrate (commercially available from Kirkegaard & Perry) was added for a 10-minute incubation. One hundred μL of 0.09 N H2SO4 was added to each well of the 96-well plates to stop the reaction. Phosphorylation status was assessed by spectrophotometer reading at 450 nm. IC50 values were calculated by curve fitting using a four-parameter analysis.

T2 sequence (P09619 33-1106): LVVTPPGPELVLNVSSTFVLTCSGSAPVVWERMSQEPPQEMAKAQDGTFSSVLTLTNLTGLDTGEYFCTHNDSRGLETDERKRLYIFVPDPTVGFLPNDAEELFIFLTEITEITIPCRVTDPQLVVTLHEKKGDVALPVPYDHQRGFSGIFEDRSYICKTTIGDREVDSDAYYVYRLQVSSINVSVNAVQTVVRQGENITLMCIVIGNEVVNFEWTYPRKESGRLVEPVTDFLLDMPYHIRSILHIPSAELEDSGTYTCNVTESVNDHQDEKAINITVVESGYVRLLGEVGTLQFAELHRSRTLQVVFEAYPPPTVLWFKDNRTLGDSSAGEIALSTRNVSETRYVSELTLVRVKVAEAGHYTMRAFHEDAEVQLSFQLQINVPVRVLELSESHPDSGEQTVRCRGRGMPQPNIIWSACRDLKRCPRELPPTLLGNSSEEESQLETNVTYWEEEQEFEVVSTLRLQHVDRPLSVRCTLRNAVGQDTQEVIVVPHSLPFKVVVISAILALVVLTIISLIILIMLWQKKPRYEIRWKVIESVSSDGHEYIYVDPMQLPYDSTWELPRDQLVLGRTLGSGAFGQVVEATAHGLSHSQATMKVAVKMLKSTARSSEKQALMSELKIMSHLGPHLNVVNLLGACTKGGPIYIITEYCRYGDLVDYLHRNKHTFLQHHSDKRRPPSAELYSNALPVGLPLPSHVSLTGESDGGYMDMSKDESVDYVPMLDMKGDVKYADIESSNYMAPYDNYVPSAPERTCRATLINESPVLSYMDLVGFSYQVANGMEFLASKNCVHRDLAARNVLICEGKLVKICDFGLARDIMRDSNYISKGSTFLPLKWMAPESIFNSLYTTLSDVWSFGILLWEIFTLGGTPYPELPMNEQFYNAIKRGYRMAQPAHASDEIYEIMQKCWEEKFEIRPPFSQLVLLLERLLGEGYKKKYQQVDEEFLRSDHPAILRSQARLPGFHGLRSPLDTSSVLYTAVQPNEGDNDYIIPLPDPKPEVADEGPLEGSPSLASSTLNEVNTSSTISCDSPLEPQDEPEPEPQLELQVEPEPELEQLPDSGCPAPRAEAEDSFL
T1 sequence (P35968 with tags, fused parts or gaps DEL940-989/E990V limits assumed): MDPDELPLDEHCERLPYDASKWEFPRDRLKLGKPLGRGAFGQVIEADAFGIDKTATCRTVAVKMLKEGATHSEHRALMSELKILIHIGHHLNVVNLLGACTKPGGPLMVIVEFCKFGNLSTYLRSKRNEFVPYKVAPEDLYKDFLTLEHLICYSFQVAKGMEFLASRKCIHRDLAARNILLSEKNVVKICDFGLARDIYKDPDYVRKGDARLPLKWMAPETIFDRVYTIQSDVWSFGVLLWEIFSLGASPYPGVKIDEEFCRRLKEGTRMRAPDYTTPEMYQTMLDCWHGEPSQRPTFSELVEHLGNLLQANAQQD
T3 sequence (P35968 20-1356): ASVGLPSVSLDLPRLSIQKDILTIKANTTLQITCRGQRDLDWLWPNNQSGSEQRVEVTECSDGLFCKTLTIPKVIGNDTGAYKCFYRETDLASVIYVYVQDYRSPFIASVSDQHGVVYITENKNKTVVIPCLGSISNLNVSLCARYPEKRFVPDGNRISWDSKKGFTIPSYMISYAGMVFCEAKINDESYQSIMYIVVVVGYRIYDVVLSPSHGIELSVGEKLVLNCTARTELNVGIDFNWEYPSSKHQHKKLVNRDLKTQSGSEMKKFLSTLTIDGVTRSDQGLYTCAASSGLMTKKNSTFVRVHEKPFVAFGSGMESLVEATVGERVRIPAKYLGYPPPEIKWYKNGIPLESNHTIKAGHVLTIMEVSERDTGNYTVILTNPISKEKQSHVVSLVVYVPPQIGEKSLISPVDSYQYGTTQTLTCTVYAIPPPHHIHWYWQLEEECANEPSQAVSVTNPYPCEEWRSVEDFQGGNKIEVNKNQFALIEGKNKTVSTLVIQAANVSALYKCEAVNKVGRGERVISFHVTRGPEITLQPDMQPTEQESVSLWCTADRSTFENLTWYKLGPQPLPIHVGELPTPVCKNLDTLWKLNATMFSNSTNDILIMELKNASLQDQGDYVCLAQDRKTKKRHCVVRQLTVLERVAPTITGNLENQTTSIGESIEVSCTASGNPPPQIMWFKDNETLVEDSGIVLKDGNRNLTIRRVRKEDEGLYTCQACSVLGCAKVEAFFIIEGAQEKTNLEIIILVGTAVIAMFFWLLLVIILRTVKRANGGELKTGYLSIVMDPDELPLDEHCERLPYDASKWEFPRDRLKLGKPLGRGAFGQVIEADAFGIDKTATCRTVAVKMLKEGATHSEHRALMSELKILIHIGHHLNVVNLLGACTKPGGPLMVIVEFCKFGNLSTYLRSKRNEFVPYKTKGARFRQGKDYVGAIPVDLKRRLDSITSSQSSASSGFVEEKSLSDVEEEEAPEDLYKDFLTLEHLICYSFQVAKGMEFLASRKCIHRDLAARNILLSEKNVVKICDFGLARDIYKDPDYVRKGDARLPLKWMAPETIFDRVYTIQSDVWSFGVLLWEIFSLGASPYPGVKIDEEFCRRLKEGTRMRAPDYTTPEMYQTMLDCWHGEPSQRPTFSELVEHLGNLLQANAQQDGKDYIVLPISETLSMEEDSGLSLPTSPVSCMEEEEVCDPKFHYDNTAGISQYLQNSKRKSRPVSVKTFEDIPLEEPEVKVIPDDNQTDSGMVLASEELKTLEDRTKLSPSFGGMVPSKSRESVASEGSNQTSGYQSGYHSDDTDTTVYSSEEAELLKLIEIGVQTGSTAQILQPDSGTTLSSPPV

| Compound | Ki [1] [nM] | inhibition at 0.05 µM [1] [%] | IC50 (PDGFRβ) | AUC (Mouse PK assay; female, B6, mouse, plasma, 50 mg/kg) [ng·h/mL] | Cmax (Mouse PK assay; female, B6, mouse, plasma, 50 mg/kg, p.o., 50 mg/kg, read-out: Mouse Cmax, po ng-h/mL) [ng/mL] | Mouse Cmin, po (Mouse PK assay) [ng/mL] | IC50 (KDR (VEGFR2)) | IC50 ([2]; Homo sapiens, HUVEC, 72 h) [nM] | IC50 (HUVEC; Homo sapiens, HUVEC) [nM] | IC50 ([2]; 72 hours) [nM] | IC50 (HUVEC) [nM] |
| --- | --- | --- | --- | --- | --- | --- | --- | --- | --- | --- | --- |
| COC[C@@H]1C[C@@H](O)CN1C(=O)c1cc2nccc(Nc3ccc4c(c3)cc(C)n4C(=O)NC3CC3)c2s1 [Example 3h] | 1.19 | 95 | – | – | – | – | – | 1.94 | 225 | – | – |
| CO[C@H]1CN(C(=O)c2cc3nccc(Oc4ccc5c(c4)cc(C)n5C(=O)NCCO)c3s2)CC1F (stereo partly drawn) [Example 8k, 5-[(2-{[(4S)-3-Fluoro-4-methoxypyrrolidin-1-yl]carbonyl}thieno[3,2b]pyridin-7-yl)oxy]-N-(2-hydroxyethyl)-2-methyl-1H-indole-1-carboxamide] | 0.868 | 95 | – | – | – | – | – | 0.32 | 18 | – | – |
| CNC(=O)n1c(C)cc2cc(Oc3ccnc4cc(C(=O)N5CC(O)C5)sc34)ccc21 [Example 8o, 5-[2-(3-Hydroxy-azetidine-1-carbonyl)-thieno[3,2-b]pyridin-7-yloxy]-2-methyl-indole-1-carboxylic acid methylamide] | 4.47 | 74 | – | – | – | – | – | 1.25 | 61 | – | – |
| 5-[2-(3S-Methoxy-pyrrolidine-1-carbonyl)-thieno[3,2-b]pyridin-7-ylamino]-2-methyl-2,3-dihydro-indole-1-carboxylic acid methylamide [Example 1u] | – | – | > 100 nM | – | – | – | – | – | – | > 10 | 4840 |
| CO[C@H]1CCN(C(=O)c2cc3nccc(Oc4ccc5c(c4F)c(Cl)c(C)n5C(=O)NC4CC4)c3s2)C1 [Example 6c, 3-Chloro-4-fluoro-5-[2-(3S-methoxy-pyrrolidine-1-carbonyl)-thieno[3,2-b]pyridin-7-yloxy]-2-methyl-indole-1-carboxylic acid cyclopropyl-amide] | 0.688 | 97 | 32 nM | – | – | – | 1.27 nM | 0.99 | – | – | – |
| CO[C@H]1CN(C(=O)c2cc3nccc(Nc4ccc5c(c4)cc(C)n5C(=O)NC4CC4)c3s2)C[C@@H]1OC [Example 1s, 5-[2-(3S,4S-Dimethoxy-pyrrolidine-1-carbonyl)-thieno[3,2-b]pyridin-7-ylamino]-2-methyl-indole-1-carboxylic acid cyclopropylamide] | 1.1 | 98 | 165 nM and 98 nM | – | – | – | 0.42 nM and 0.7 nM | 0.308 | – | – | – |

More lines, in order of falling Ki [1], values ahead:

| Ki [1] [nM] | inhibition at 0.05 µM [1] [%] | IC50 (PDGFRβ) | AUC (Mouse PK assay; female, B6, mouse, plasma, 50 mg/kg) [ng·h/mL] | Cmax (Mouse PK assay; female, B6, mouse, plasma, 50 mg/kg, p.o., 50 mg/kg, read-out: Mouse Cmax, po ng-h/mL) [ng/mL] | Mouse Cmin, po (Mouse PK assay) [ng/mL] | IC50 (KDR (VEGFR2)) | Compound | IC50 ([2]; Homo sapiens, HUVEC, 72 h) [nM] | IC50 (HUVEC; Homo sapiens, HUVEC) [nM] | IC50 ([2]; 72 hours) [nM] | IC50 (HUVEC) [nM] |
| --- | --- | --- | --- | --- | --- | --- | --- | --- | --- | --- | --- |
| 0.51 | 97 | 11.3 nM | – | – | – | 0.73 nM and 0.41 nM | C#CCNC(=O)n1c(C)cc2cc(Nc3ccnc4cc(C(=O)N5CCC[C@@H]5CO)sc34)ccc21 [Example 1e, 5-[2-(2R-Hydroxymethyl-pyrrolidine-1-carbonyl)-thieno[3,2-b]pyridin-7-ylamino]-2-methyl-indole-1-carboxylic acid prop-2-ynylamide] | 0.18 | – | – | – |
| 0.462 | 97 | 8.1 nM and 6.3 nM | – | – | – | – | CNC(=O)n1ccc2cc(Oc3ccnc4cc(-c5nc(C(C)(C)O)cs5)sc34)ccc21 [Example 31, 5-{2-[4-(1-Hydroxy-1-methyl-ethyl)-thiazol-2-yl]-thieno[3,2-b]pyridin-7-yloxy}-indole-1-carboxylic acid methylamide] | 0.16 | 101 | – | – |
| 0.2 | 93 | 56 nM | 2530 | 1230 | 34 | – | C#CCNC(=O)n1c(C)cc2cc(Nc3ccnc4cc(C(=O)N5CC[C@@H](OC)C5)sc34)ccc21 [Example 1p, 5-[2-(3R-Methoxy-pyrrolidine-1-carbonyl)-thieno[3,2-b]pyridin-7-ylamino]-2-methyl-indole-1-carboxylic acid prop-2-ynylamide] | – | 119 | – | – |
| 0.089 | 97 | 10.2 nM | – | – | – | – | Cc1cc2cc(Oc3ccnc4cc(C(=O)N5CCC5)sc34)ccc2n1C(=O)NCCCO [Example 8n, 5-[2-(Azetidine-1-carbonyl)-thieno[3,2-b]pyridin-7-yloxy]-2-methyl-indole-1-carboxylic acid (3-hydroxy-propyl)-amide] | – | 58 | – | – |
